Assay results reported in patent US6693112B2, “Compounds for enhancing chemotherapy” (The Pennsylvania State University, priority 2000, dated 2004).
“And” between values parts separate entries of the source, which are not always exact repeats. Identical values can stand only once. Like-named read-outs stand apart in the source and are kept apart here.

Assays:
P388/ADR cells = experiment: Drug cytotoxicity with or without 10 μM modulator, P388/ADR cells (Table V); settings: read-out: IC50 (EtOH)
A498 cells = experiment: Drug cytotoxicity with or without 10 μM modulator, A498 cells (Table V)
MCF-7 cells [1] = experiment: Drug cytotoxicity with or without 10 μM modulator, MCF-7 cells (Table V)
MCF7/VP cells = experiment: Drug cytotoxicity with or without 10 μM modulator, MCF7/VP (MRP1) cells (Table V); settings: read-out: IC50 (EtOH)
NCI/ADR cells = experiment: Drug cytotoxicity with or without 10 μM modulator, NCI/ADR cells (Table V); settings: read-out: IC50 (EtOH)
T24 cells = experiment: Drug cytotoxicity with or without 10 μM modulator, T24 cells (Table V)
P-gp = P-gp (Homo sapiens, UniProt P08183); settings: for Pgp Antagonism / P-gp antagonism score: NCI/ADR cells, % survival with compound alone / with compound + 50 nM vinblastine; for P-gp antagonism score: >1.0 = chemosensitization; for p-GP/MRP1: ratio of P-gp and MRP1 antagonism scores
P-gp, sequence (P08183 whole entry): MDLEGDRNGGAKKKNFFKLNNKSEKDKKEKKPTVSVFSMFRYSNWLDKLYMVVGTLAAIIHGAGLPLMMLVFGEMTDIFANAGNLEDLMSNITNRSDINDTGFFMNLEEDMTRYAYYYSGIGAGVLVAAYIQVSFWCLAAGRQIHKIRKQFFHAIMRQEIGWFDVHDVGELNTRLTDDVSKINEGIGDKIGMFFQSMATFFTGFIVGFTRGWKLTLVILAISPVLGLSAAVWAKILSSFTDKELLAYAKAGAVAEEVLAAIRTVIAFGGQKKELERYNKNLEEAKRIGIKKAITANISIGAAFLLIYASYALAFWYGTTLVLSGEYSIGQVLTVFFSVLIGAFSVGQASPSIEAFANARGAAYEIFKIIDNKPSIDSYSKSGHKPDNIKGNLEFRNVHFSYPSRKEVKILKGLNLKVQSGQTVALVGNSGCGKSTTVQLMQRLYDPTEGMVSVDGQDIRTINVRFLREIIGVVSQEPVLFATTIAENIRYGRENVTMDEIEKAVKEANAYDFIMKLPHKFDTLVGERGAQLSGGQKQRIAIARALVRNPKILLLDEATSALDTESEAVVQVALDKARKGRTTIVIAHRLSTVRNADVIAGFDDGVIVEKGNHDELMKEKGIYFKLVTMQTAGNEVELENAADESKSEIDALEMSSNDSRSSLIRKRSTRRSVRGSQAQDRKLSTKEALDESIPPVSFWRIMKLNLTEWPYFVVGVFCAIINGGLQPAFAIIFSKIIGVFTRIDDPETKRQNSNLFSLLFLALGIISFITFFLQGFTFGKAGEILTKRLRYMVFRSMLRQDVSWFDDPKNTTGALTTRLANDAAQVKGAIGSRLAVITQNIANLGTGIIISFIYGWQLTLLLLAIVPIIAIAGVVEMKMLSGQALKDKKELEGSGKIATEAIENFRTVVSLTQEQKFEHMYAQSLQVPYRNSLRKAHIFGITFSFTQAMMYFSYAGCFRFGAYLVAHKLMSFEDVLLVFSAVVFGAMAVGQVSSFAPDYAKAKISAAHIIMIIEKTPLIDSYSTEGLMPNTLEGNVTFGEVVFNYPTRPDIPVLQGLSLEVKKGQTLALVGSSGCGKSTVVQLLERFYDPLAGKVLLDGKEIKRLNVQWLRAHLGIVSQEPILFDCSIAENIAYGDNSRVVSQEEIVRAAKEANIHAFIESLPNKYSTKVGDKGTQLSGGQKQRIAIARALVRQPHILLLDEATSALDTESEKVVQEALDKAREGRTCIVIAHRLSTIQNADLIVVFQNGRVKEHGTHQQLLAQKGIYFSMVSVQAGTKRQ
Protocol: The percentage of cells that died following treatment was calculated as a percent decrease in sulforhodamine B binding as compared with control cultures. […] Inhibition of P-gp was manifested as the ability of the compound to enhance the cytotoxicity of vinblastine toward NCI/ADR cells. To assess the toxicity of the compounds toward drug-sensitive cells, the effects of the compounds on the growth of drug-sensitive MCF-7 cells were determined using the same methods.
The P-gp antagonism score was calculated by dividing the percent survival of NCI/ADR cells treated with the compound alone by the percent survival of NCI/ADR cells treated with the compound in the presence of 50 nM vinblastine. Chemosensitization is indicated by a score of more than 1.0.
The P-gp antagonism score was calculated by dividing the percent survival of NCI/ADR cells treated with […] by the percent survival of NCI/ADR cells treated with the compound in the presence of 50 nM vinblastine.

MRP = biological target: T1, MRP (Homo sapiens, UniProt P33527); experiment: Reversal of MRP-mediated MDR: enhancement of vincristine cytotoxicity toward MCF-7/VP cells; format: cell-based; settings: % survival with compound alone / with compound + 1 nM vincristine; for MRP1 antagonism score: >1.0 = chemosensitization
T1 construct: MCF-7/VP cells, a cell line that expresses MRP; endogenous in cells; host or cells: MCF-7/VP cells
T1 sequence (P33527 whole entry): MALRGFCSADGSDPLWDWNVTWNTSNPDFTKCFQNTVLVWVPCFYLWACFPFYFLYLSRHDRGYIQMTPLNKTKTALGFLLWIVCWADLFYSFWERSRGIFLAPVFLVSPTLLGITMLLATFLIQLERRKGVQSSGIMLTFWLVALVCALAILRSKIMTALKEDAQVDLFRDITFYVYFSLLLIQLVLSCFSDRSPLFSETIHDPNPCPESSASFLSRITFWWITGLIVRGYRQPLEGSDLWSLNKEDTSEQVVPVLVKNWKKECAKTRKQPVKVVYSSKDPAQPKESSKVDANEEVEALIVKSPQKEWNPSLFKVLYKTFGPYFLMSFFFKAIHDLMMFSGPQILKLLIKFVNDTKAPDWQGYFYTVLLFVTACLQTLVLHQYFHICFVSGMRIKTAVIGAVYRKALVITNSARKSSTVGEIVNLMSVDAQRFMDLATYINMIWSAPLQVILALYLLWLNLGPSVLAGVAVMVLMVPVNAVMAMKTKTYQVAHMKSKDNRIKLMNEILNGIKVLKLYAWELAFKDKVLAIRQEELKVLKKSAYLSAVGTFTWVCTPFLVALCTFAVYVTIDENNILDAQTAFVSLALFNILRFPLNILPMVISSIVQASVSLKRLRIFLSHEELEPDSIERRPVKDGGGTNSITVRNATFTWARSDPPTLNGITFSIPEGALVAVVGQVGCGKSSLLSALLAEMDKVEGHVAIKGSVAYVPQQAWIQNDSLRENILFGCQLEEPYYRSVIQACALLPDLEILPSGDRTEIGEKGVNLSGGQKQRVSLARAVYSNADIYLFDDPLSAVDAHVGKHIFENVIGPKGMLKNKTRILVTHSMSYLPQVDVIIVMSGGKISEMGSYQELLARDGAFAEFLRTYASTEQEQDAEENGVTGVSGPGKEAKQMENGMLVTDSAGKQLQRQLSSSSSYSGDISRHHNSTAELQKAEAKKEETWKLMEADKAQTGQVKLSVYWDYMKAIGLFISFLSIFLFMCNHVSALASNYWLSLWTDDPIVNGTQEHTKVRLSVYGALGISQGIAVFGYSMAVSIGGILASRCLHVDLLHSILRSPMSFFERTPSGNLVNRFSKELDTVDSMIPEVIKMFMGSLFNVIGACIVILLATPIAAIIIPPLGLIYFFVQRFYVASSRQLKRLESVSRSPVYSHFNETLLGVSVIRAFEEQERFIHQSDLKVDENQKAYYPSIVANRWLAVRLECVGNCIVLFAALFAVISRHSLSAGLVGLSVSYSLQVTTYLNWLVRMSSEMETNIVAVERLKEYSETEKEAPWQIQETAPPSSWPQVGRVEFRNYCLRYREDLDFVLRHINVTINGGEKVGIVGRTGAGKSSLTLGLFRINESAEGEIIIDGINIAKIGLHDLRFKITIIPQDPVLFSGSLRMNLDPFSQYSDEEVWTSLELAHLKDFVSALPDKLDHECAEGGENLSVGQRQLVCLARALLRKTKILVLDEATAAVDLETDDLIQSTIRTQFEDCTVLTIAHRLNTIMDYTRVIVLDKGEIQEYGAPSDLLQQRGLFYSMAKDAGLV
Protocol: Reversal of MRP-mediated MDR was examined by plating MCF-7/VP cells as described above and exposing the cells to varying concentrations of phenoxymethylquinoxalinone compounds in the absence or presence of 1 nM vincristine for 48 hours. Cell survival was assayed as described above. The percentage of cells that died following treatment was calculated as described above. Inhibition of MRP was manifested as the ability of the compound to enhance the cytotoxicity of vincristine toward MCF-7/VP cells.
Chemosensitization is indicated by a score greater than 1.0.
Chemosensitization is indicated by a score greater than 1.0. […]

MCF-7 cells [2] = experiment: Cytotoxicity toward drug-sensitive MCF-7 cells (sulforhodamine B binding assay); format: cell-based, human; settings: for Toxicity: percent of MCF-7 cells killed by 10 μ/ml of the compound; for IC50: MCF-7 cells, 48 hours, concentration required to kill 50% of the cells, * = maximum dose tested (low solubility)
[3] = Homo sapiens, A498, read-out: IC50 (EtOH)
[4] = Homo sapiens, MCF7, read-out: IC50 (EtOH)
[5] = Homo sapiens, T-24, read-out: IC50 (EtOH)

CC[C@]1(O)C[C@H]2CN(CCc3c([nH]c4ccccc34)[C@@](C(=O)OC)(c3cc4c(cc3OC)N(C=O)[C@H]3[C@@](O)(C(=O)OC)[C@H](OC(C)=O)[C@]5(CC)C=CCN6CC[C@]43[C@@H]65)C2)C1 [Vincristine, vincristine, reference compound]
IC50 (P388/ADR cells; Mus musculus, P388/ADR): 0.15 ± 0.024 µM
IC50 (A498 cells; [3]): 0.062 ± 0.011 µM
IC50 (MCF-7 cells [1]; [4]): 0.0006 ± 0.0001 µM
IC50 (MCF7/VP cells; Homo sapiens, MCF7-VP): 0.0075 ± 0.0011 µM
IC50 (NCI/ADR cells; Homo sapiens, NCI/ADR-RES): 0.183 ± 0.014 µM
IC50 (T24 cells; [5]): 0.0048 ± 0.0002 µM

COc1cccc2c1C(=O)c1c(O)c3c(c(O)c1C2=O)C[C@@](O)(C(=O)CO)C[C@@H]3O[C@H]1C[C@H](N)[C@H](O)[C@H](C)O1 [Doxorubicin, reference compound]
IC50 (P388/ADR cells; Mus musculus, P388/ADR): 26.7 ± 10.6 µM

N.N.[Cl][Pt][Cl] [Cisplatin, cisplatin, reference compound]
IC50 (P388/ADR cells; P388/ADR cells, drug alone, EtOH solvent control, no modulator): 2.1 ± 0.8 µM
IC50 (A498 cells; read-out: IC50 (EtOH), A498 cells, drug alone, EtOH solvent control, no modulator): 4.6 ± 1 µM
IC50 (MCF-7 cells [1]; read-out: IC50 (EtOH), MCF-7 cells, drug alone, EtOH solvent control, no modulator): 16 ± 5 µM
IC50 (MCF7/VP cells; MCF7/VP (MRP1) cells, drug alone, EtOH solvent control, no modulator): 8.5 ± 2.1 µM
IC50 (NCI/ADR cells; NCI/ADR cells, drug alone, EtOH solvent control, no modulator): 7 ± 0.9 µM
IC50 (T24 cells; read-out: IC50 (EtOH), T24 cells, drug alone, EtOH solvent control, no modulator): 6.7 ± 1.1 µM

CN1CCN(CC(=O)Nc2c3c(nc4ccccc24)N(Cc2ccccc2)CC3)CC1 [Compound 63]
Pgp Antagonism (P-gp): 7.5
MRP Antagonism (MRP): 1.07
Toxicity (MCF-7 cells [2]): 21%

Cn1c(=O)c(COc2c(F)c(F)c(F)c(F)c2F)nc2ccccc21 [Compound 4]
P-gp antagonism score (P-gp): 2.1
p-GP/MRP1 (P-gp): 2.6
MRP1 antagonism score (MRP): 0.8
IC50 (MCF-7 cells [2]): > 70 µM

Cn1c(=O)c(COc2cccnc2)nc2ccccc21 [Compound 16]
P-gp antagonism score (P-gp): 1.0
p-GP/MRP1 (P-gp): 0.9
MRP1 antagonism score (MRP): 1.1
IC50 (MCF-7 cells [2]): > 56 µM

Nc1c2c(nc3ccccc13)N(Cc1ccccc1)CC2 [Compound 53]
Pgp Antagonism (P-gp): 3.1
MRP Antagonism (MRP): 1.0
Toxicity (MCF-7 cells [2]): 47%

O=C(Nc1c2c(nc3ccccc13)N(Cc1cccc(Cl)c1)CC2)C12CC3CC(CC(C3)C1)C2 [Compound 52]
Pgp Antagonism (P-gp): 1.2
MRP Antagonism (MRP): 1.2
Toxicity (MCF-7 cells [2]): 33%

COc1cc(OCc2nc3ccccc3n(C)c2=O)cc(OC)c1OC [Compound 23]
P-gp antagonism score (P-gp): 1.2
p-GP/MRP1 (P-gp): 1.3
MRP1 antagonism score (MRP): 0.9
IC50 (MCF-7 cells [2]): 21 µM

CC(C)(C)c1cc(CCC(=O)Nc2c3c(nc4ccccc24)N(Cc2ccccc2)CC3)cc(C(C)(C)C)c1O [Compound 64]
Pgp Antagonism (P-gp): 13.2
MRP Antagonism (MRP): 1.15
Toxicity (MCF-7 cells [2]): 50%

CN1CCc2c1nc1ccccc1c2NC(=O)C12CC3CC(CC(C3)C1)C2 [Compound 45]
Pgp Antagonism (P-gp): 4.7
MRP Antagonism (MRP): 0.9
Toxicity (MCF-7 cells [2]): 29%

CN1CCc2c1nc1ccccc1c2NC(=O)CN1CCCCC1 [Compound 42]
Pgp Antagonism (P-gp): 4.1
MRP Antagonism (MRP): 1.2
Toxicity (MCF-7 cells [2]): 51%

CCCCN(CCCC)CC(=O)Nc1c2c(nc3ccccc13)N(C)CC2 [Compound 43]
Pgp Antagonism (P-gp): 4.2
MRP Antagonism (MRP): 1.3
Toxicity (MCF-7 cells [2]): 50%

CCN(CC)CC(=O)Nc1c2c(nc3ccccc13)N(Cc1ccccc1)CC2 [Compound 61]
Pgp Antagonism (P-gp): 14.8
MRP Antagonism (MRP): 0.98
Toxicity (MCF-7 cells [2]): 14%

O=C(CN1CCCCC1)Nc1c2c(nc3ccccc13)N(Cc1ccccc1)CC2 [Compound 62]
Pgp Antagonism (P-gp): 17.8
MRP Antagonism (MRP): 1.1 and 1.09
Toxicity (MCF-7 cells [2]): 0%

Cc1cc(OCc2nc3ccccc3n(C)c2=O)ccc1[N+](=O)[O-] [Compound 9]
P-gp antagonism score (P-gp): 1.6
p-GP/MRP1 (P-gp): 1.4
MRP1 antagonism score (MRP): 1.1
IC50 (MCF-7 cells [2]): > 77 µM

CN1CCc2c1nc1ccccc1c2NC(=O)CNCCc1ccc(O)cc1 [Compound 44]
Pgp Antagonism (P-gp): 1.7
MRP Antagonism (MRP): 1.4
Toxicity (MCF-7 cells [2]): 21%

CN(C)c1cccc(OCc2nc3ccccc3n(C)c2=O)c1 [Compound 12]
P-gp antagonism score (P-gp): 1.1
p-GP/MRP1 (P-gp): 1.1
MRP1 antagonism score (MRP): 0.9
IC50 (MCF-7 cells [2]): 57 µM

Nc1c2c(nc3ccccc13)N(c1ccccc1)CC2 [Compound 51]
Pgp Antagonism (P-gp): 2.7
MRP Antagonism (MRP): 1.1
Toxicity (MCF-7 cells [2]): 52%

CC(C)NCC(=O)Nc1c2c(nc3ccccc13)N(Cc1ccccc1)CC2 [Compound 59]
Pgp Antagonism (P-gp): 13.0
MRP Antagonism (MRP): 0.99
Toxicity (MCF-7 cells [2]): 45%

CC(=O)O[C@H]1C(=O)[C@@]2(C)[C@H]([C@H](OC(=O)c3ccccc3)[C@]3(O)C[C@H](OC(=O)[C@H](O)[C@@H](NC(=O)c4ccccc4)c4ccccc4)C(C)=C1C3(C)C)[C@]1(OC(C)=O)CO[C@@H]1C[C@@H]2O [Taxol, reference compound]
IC50 (P388/ADR cells; Mus musculus, P388/ADR): 1.65 ± 0.47 µM
IC50 (A498 cells; [3]): 0.049 ± 0.021 µM
IC50 (MCF-7 cells [1]; [4]): 0.0016 ± 0.0003 µM
IC50 (MCF7/VP cells; Homo sapiens, MCF7-VP): 0.0018 ± 0.0004 µM
IC50 (NCI/ADR cells; Homo sapiens, NCI/ADR-RES): 2.02 ± 0.81 µM
IC50 (T24 cells; [5]): 0.0047 ± 0.0005 µM

CC[C@]1(O)C[C@@H]2CN(CCc3c([nH]c4ccccc34)[C@@](C(=O)OC)(c3cc4c(cc3OC)N(C)[C@H]3[C@@](O)(C(=O)OC)[C@H](OC(C)=O)[C@]5(CC)C=CCN6CC[C@]43[C@@H]65)C2)C1 [Vinblastine, vinblastine, reference compound]
IC50 (P388/ADR cells; Mus musculus, P388/ADR): 0.028 ± 0.005 µM
IC50 (A498 cells; [3]): 0.0076 ± 0.0026 µM
IC50 (MCF-7 cells [1]; [4]): 0.0004 ± 0.0001 µM
IC50 (MCF7/VP cells; Homo sapiens, MCF7-VP): 0.0006 ± 0.0001 µM
IC50 (NCI/ADR cells; Homo sapiens, NCI/ADR-RES): 0.11 ± 0.017 µM
IC50 (T24 cells; [5]): 0.0013 ± 0.0003 µM

CN1CCc2c1nc1cc(Br)ccc1c2N [Compound 36]
Pgp Antagonism (P-gp): 1.3
MRP Antagonism (MRP): 1.6
Toxicity (MCF-7 cells [2]): 99% and 94%

COC(=O)c1ccc(OCc2nc3ccccc3n(C)c2=O)c(OC)c1 [Compound 10, 3-Methoxy-4-(4-methyl-3-oxo-3,4-dihydroquinoxalin-2-yl-methoxy)-benzoyl methyl ester]
P-gp antagonism score (P-gp): 5.6
p-GP/MRP1 (P-gp): 5.2
MRP1 antagonism score (MRP): 1.1
IC50 (MCF-7 cells [2]): 71 µM

CN1CCc2c1nc1ccccc1c2NC(=O)CCc1cc(C(C)(C)C)c(O)c(C(C)(C)C)c1 [Compound 46]
Pgp Antagonism (P-gp): 1.0
MRP Antagonism (MRP): 1.0
Toxicity (MCF-7 cells [2]): 99%

CCN(CC)CC(=O)Nc1c2c(nc3ccccc13)N(C)CC2 [Compound 41]
Pgp Antagonism (P-gp): 6.0
MRP Antagonism (MRP): 1.2
Toxicity (MCF-7 cells [2]): 30%

CC(C)NCC(=O)Nc1c2c(nc3ccccc13)N(C)CC2 [Compound 39]
Pgp Antagonism (P-gp): 1.8
MRP Antagonism (MRP): 1.4
Toxicity (MCF-7 cells [2]): 39%

O=c1[nH]cc(F)c(=O)[nH]1 [5-Fluorouracil, 5-fluorouracil, reference compound]
IC50 (P388/ADR cells; Mus musculus, P388/ADR): 0.22 ± 0.04 µM
IC50 (A498 cells; [3]): 9 ± 2.1 µM
IC50 (MCF-7 cells [1]; [4]): 49 ± 31 µM
IC50 (MCF7/VP cells; Homo sapiens, MCF7-VP): 11 ± 1 µM
IC50 (NCI/ADR cells; Homo sapiens, NCI/ADR-RES): 181 ± 84 µM
IC50 (T24 cells; [5]): 77 ± 20 µM

CN1CCc2c1nc1ccccc1c2NC(=O)CNC(C)(C)C [Compound 40]
Pgp Antagonism (P-gp): 3.2
MRP Antagonism (MRP): 1.2
Toxicity (MCF-7 cells [2]): 28%
